Holding throughout (assay): growth of human tumour cells (NCI), 48 h
For experiment [1], the system named is CCRF-CEM leukemia.
The subject of experiment [2] is KM12 colon.
For experiment [3], the system named is SF-295 CNS.
The subject of experiment [4] is SN12C renal.
Experiment [5] concerns SNB-19 CNS.
Experiment [6] relates to U251 CNS.
Experiment [7] deals with DU-145 prostate.
For experiment [8], the system named is MDA-MB-435.
Experiment [9] deals with OVCAR-5 ovarian.
Experiment [10] relates to PC-3 prostate.

Molecules are shown by their SMILES.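 Compound exposure: 48 hours, 5 concentrations, 96-well plates. Abbreviation: GI50, concentration required for 50% inhibition of growth. The concentration for full growth arrest is given as TGI.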 Bounds are passed on as bounds.

Consider `CCOC(=O)C1(Br)C(c2ccccc2)NC(=O)N(C2OC(COC(=O)c3ccccc3)C(OC(=O)c3ccccc3)C2OC(=O)c2ccccc2)C1(C)Br` (configuration not stated), for which the TGI is 18.8 µM in [1]; 99.6 µM in [2]; greater than 100 µM in experiment [3]; greater than 100 µM in experiment [4]; greater than 100 µM in [5]; greater than 100 µM in [6].
`COc1cc(CNc2nc3cc(N)cc(N)c3nc2-c2ccccc2)cc(OC)c1OC`: the GI50 in experiment [7] was 5.24 µM; in [2] it was 0.478 µM; in [8], 0.227 µM; in experiment [9] it was 21.5 µM; in experiment [10], 2.18 µM; in [3], 1.67 µM. Also, the GI50 was 8.66 µM in [4], 7.22 µM in experiment [5] and 1.73 µM in [6]. For the same compound, the TGI in experiment [7] is 20 µM; in experiment [2] it was 10.2 µM; in experiment [8], 0.907 µM; in experiment [9], greater than 50 µM; in experiment [10], greater than 50 µM; in [3], 5.62 µM. Also, the TGI in [4] worked out at 16.7 µM; in experiment [5], 20.8 µM; in [6], 6.25 µM.
Take `NC1=NN(c2ccccc2)C(=O)C1/C(=N\NC(=O)c1cc2ccccc2cc1O)C(=O)Nc1nc([N+](=O)[O-])cs1` (configuration not stated): the TGI in experiment [1] was 59.7 µM; in experiment [2] it was greater than 80 µM; in experiment [9], greater than 100 µM; in experiment [3], greater than 100 µM; in experiment [4], greater than 100 µM; in [5] it was greater than 100 µM. The same compound came in with a TGI in experiment [6] greater than 100 µM.
On to `O=C(O)c1c([N+](=O)[O-])cc(C(F)(F)F)cc1[N+](=O)[O-]`, for which the TGI in experiment [1], in [2], in [9], in experiment [3], in [4] and in experiment [5] was greater than 100 µM throughout. In addition, the TGI in experiment [6] is greater than 100 µM.
`O=C(c1ccco1)c1ccccc1C(=O)c1ccco1`: the TGI in [1], in [2], in experiment [9], in experiment [3], in [4] and in [5] was greater than 100 µM in each case. Moreover, the TGI in [6] is greater than 100 µM.
In the case of `CN(C)CCNC(=O)c1cccc2ccc(-c3cccnc3)nc12`, the TGI is greater than 100 µM in [1]; 98.4 µM in [2]; 22.4 µM in [9]; 24.1 µM in experiment [3]; 23.1 µM in experiment [4]; 22.6 µM in [5]. In experiment [6], the TGI was 19.3 µM.
Take `COc1cc[c]([Sb]([Br])([CH]=C(C)C)([CH]=C(C)C)[CH]=C(C)C)cc1`: the GI50 in experiment [1] is 5.65 µM; in experiment [2], 1.98 µM; in experiment [3], 18.4 µM; in experiment [4] it was 10.9 µM; in [5] it was 5.4 µM; in experiment [6], 9.37 µM. The TGI in experiment [1] is greater than 100 µM; in experiment [2] it was 25.6 µM; in [3], 87.2 µM; in experiment [4], greater than 100 µM; in experiment [5], 78.9 µM; in experiment [6], 72.8 µM.
For `CCCCCCCCCCCCC/C=C1\C[C@H](O)COC1=O`, the TGI amounted to 36.6 µM in experiment [1]; 30.1 µM in experiment [2]; 33.5 µM in experiment [9]; 33 µM in [3]; 28.8 µM in experiment [4]; 32.9 µM in [5]. Besides, the TGI in experiment [6] is 32 µM.
Regarding `COc1cc(-c2nc(-c3nnc(-c4ccc(F)c(Cl)c4)o3)c3ccccn23)cc(OC)c1OC`, the GI50 is greater than 100 µM in experiment [1]; 3.09 µM in [8]; 4.57 µM in experiment [9]; 3.09 µM in [3]; 2.42 µM in experiment [4]; 1.93 µM in experiment [5]. Besides, in [6], the GI50 is 1.86 µM. Also, the TGI in experiment [1] was greater than 100 µM; in [8], greater than 100 µM; in [9], greater than 100 µM; in [3], greater than 100 µM; in experiment [4] it was greater than 100 µM; in [5], 5.36 µM. For the same compound, in experiment [6], the TGI came out at 4.43 µM.
In the case of `CC1(C(=O)NCCN(CCNC(=O)C2(C)CC3(C)CC(C)(C2)C(=O)NC3=O)CCNC(=O)C2(C)CC3(C)CC(C)(C2)C(=O)NC3=O)CC2(C)CC(C)(C1)C(=O)NC2=O` (configuration not stated), the TGI in experiment [1], in experiment [2], in [3], in experiment [4], in experiment [5] and in experiment [6] was greater than 100 µM in each case.
On to `COc1ccc2nc3ccccc3c(NCCCCCN(CCCl)CCCl)c2c1`, for which the TGI in experiment [1] turned out to be 0.118 µM; in experiment [2] it was 2.14 µM; in experiment [9], 1.35 µM; in experiment [3] it was 1.21 µM; in experiment [5], 0.914 µM; in experiment [6], 0.5 µM.
With `O=C(c1ccccn1)c1nc(-c2ccc(Cl)c(Cl)c2)nc2ccc(Cl)cc12`, the TGI in experiment [1], in [2], in experiment [9], in experiment [3] and in [6] was greater than 100 µM throughout.
In the case of `C/C=C/C(=O)[C@@H](O)C(C)C`, the TGI in [2], in experiment [9], in [3], in [4], in experiment [5] and in [6] was greater than 100 µM each time.
As to `Clc1ccccc1C1N2CCCCC2[C@@H]2c3[nH]c4ccccc4c3CCN12` (some centres not stated), the TGI is 52.9 µM in [1]; 52.7 µM in experiment [9]; 58.9 µM in [3]; 30.9 µM in [4]; 82.7 µM in experiment [5]; 31.9 µM in experiment [6].
Regarding `COc1nc2c(cc1S(=O)(=O)c1ccccc1)CCc1c-2cnn1Cc1ccccc1`, the GI50 in experiment [1] is 16.8 µM; in [2] it was 3.73 µM; in [8], greater than 100 µM; in experiment [9], greater than 100 µM; in experiment [10], 4.23 µM; in experiment [3] it was 9.47 µM. For the same compound, the GI50 in [4] was greater than 100 µM; in [5], greater than 100 µM; in [6], 7.58 µM. For the same compound, the TGI in experiment [1], in [2], in [8], in experiment [9], in experiment [10] and in experiment [3] was greater than 100 µM throughout. Further, the TGI in experiment [4], in [5] and in [6] was greater than 100 µM in each case.

(Values after PubChem BioAssay (NCI).)
